How the values were obtained:
[1] = tested on: aducanumab; assay: ELISA of aducanumab on plates coated with truncated Aβ peptides; type: binding, human; settings: for EC50: aducanumab on peptide coated or captured at 5 μg/mL (multivalent effects), antibody from 100 nM, 2 h room temperature, read-out: Binding activity (EC50); for Fold reduction (relative to Aβ1-42): reduction of aducanumab binding affinity, peptide 5 μg/mL
Description: For N-terminally truncated Aβ peptides, untagged peptides were used. For ELISA, 96-well microplates were coated with 5 μg/mL peptide in Coating Buffer (15 mM Na2CO3, 35 mM NaHCO3, pH 9.6) overnight at 4 °C. Plates were washed and non-specific binding sites were blocked with 2% BSA in PBS for 1 h at 25 °C. Serially diluted antibody starting from 100 nM in Assay Buffer (2% BSA in PBS) was added, and the plates were incubated for 2 h at room temperature. Binding was determined by incubation with an HRP-conjugated goat anti-human polyclonal antibody (Jackson ImmunoResearch) followed by measurement of HRP activity using Ultra TMB ELISA Colorimetric Substrate Solution (Thermo Fisher Scientific). For C-terminally truncated Aβ peptides, biotin-conjugated peptides were used. The biotin was attached synthetically to the C terminus of the protein by incorporation of a non-native lysine residue. For ELISA, biotin-conjugated peptides were incubated for 1 h at room temperature, at a concentration of 5 μg/mL in Assay Buffer, using plates that were pre-coated with neutravidin (Thermo Fisher Scientific, Reacti-Bind plates). Plates were washed, antibodies diluted serially in Assay Buffer were added, and binding was measured as described above.

[2] = tested on: Aβ (Monomer, Aggregate); settings: A = aggregate, M = monomer; ref [9]–[19],[54] as given per antibody in column Ref. of Table 1; cited from earlier work

Row | Substance | EC50 [1] [µM] | Fold reduction (relative to Aβ1-42) [1] [fold] | Fold reduction (relative to Aβ1-42) ([1]; listed as Aβ5-42) [fold] | Aβ selectivity (Monomer, Aggregate) [2]
1 | 8–42: untagged N-terminally truncated Aβ peptide | 0.15 | 400 | – | –
2 | 5–42: untagged N-terminally truncated Aβ peptide | 0.036 | 96 | > 40 | –
3 | 6–42: untagged N-terminally truncated Aβ peptide | 0.14 | 390 | – | –
4 | solanezumab: anti-Aβ clinical candidate antibody; mouse analog m266 | – | – | – | M ≫ A

Source: PMC5913127 (Scientific Reports, 2018)
